# Results: ChEMBL document CHEMBL5046301, “pH-Responsive Antimicrobial Peptide with Selective Killing Activity for Bacterial Abscess Therapy” (J Med Chem, 2022)
# Activity calls are given as the source filed them. No cut-off for these calls is given here.
# What was measured:
# [1] = Cytotoxicity against mouse RAW264.7 cells assessed as inhibition of cell growth at pH 7.4 measured after 24 hrs by MTT assay; type: toxicity, cell-based
# [2] = tested on: Pseudomonas aeruginosa; experiment: Induction of morphological changes in Pseudomonas aeruginosa ATCC 27853 assessed as disruption in cell membrane at 2 uM at pH 6.5 incubated for 1 hr by SEM analysis; type: functional, organism-based
# [3] = tested on: Pseudomonas aeruginosa; experiment: Induction of morphological changes in Pseudomonas aeruginosa ATCC 27853 assessed as disruption in cell membrane at 2 uM at pH 7.4 incubated for 1 hr by SEM analysis; type: functional, organism-based
# [4] = tested on: Staphylococcus epidermidis; experiment: Antibacterial activity against Staphylococcus epidermidis ATCC 12228 assessed as inhibition of bacterial growth at pH 6.5 incubated for 24 hrs by NCCLS protocol based method; type: functional
# [5] = tested on: Pseudomonas aeruginosa; experiment: Antibacterial activity against Pseudomonas aeruginosa ATCC 27853 assessed as inhibition of bacterial growth at pH 6.5 incubated for 24 hrs by NCCLS protocol based method; type: functional
# [6] = tested on: Escherichia coli; experiment: Antibacterial activity against Escherichia coli ATCC 25922 assessed as inhibition of bacterial growth at pH 6.5 incubated for 24 hrs by NCCLS protocol based method; type: functional
# [7] = tested on: Pseudomonas aeruginosa; experiment: Induction of morphological changes in Pseudomonas aeruginosa ATCC 27853 assessed as change in intracellular contents at 2 uM at pH 7.4 incubated for 1 hr by TEM analysis; type: functional, organism-based
# [8] = tested on: Pseudomonas aeruginosa; experiment: Antimicrobial activity against Pseudomonas aeruginosa ATCC 27853 assessed as reduction in bacterial growth at pH 6.5 in presence of MgCl2; type: functional
# [9] = tested on: Pseudomonas aeruginosa; experiment: Antibacterial activity against Pseudomonas aeruginosa ATCC 27853 assessed as inhibition of bacterial growth at pH 7.4 incubated for 24 hrs by NCCLS protocol based method; type: functional
# [10] = tested on: Staphylococcus aureus; experiment: Antibacterial activity against Staphylococcus aureus ATCC 29213 assessed as inhibition of bacterial growth at pH 7.4 incubated for 24 hrs by NCCLS protocol based method; type: functional
# [11] = tested on: Mus musculus; experiment: Antiinflammatory activity in ICR cutaneous abscess mouse model assessed as reduction in IL-1alpha expression in serum at 5 mg/kg,ip administered twice a day measured after 72 hrs by ELISA (reference value: 9.9 +/ 0.42 10^1pg/ml); type: functional
# [12] = tested on: Pseudomonas aeruginosa; experiment: Antimicrobial activity against Pseudomonas aeruginosa ATCC 27853 infected in ICR cutaneous abscess mouse model assessed as complete epidermis structure at 5 mg/kg,ip administered twice a day measured after 3 days by hematoxylin and eosin staining based analysis; type: functional, organism-based; details: time 3.0 day
# [13] = tested on: Staphylococcus aureus; experiment: Antibacterial activity against Staphylococcus aureus ATCC 25923 assessed as inhibition of bacterial growth at pH 6.5 incubated for 24 hrs by NCCLS protocol based method; type: functional
# [14] = tested on: Pseudomonas aeruginosa; experiment: Antipseudomonal activity against Pseudomonas aeruginosa ATCC 27853 infected in ICR cutaneous abscess mouse model assessed as fold reduction in lesion area at 5 mg/kg,ip administered twice a day measured after 72 hrs relative to control; type: functional
# [15] = tested on: Lipopolysaccharide (LPS); experiment: Displacement of BODIPY-TR-cadaverin from Pseudomonas aeruginosa ATCC 27316 Lipopolysaccharide at 1 to 64 uM at pH 7.4 incubated for 1 hr by fluorescence based analysis relative to control; details: dose 1-64 µM
# [16] = tested on: Pseudomonas aeruginosa; experiment: Antimicrobial activity against Pseudomonas aeruginosa ATCC 27853 infected in ICR cutaneous abscess mouse model assessed as reduction in necrotic tissue area in infection site at 5 mg/kg,ip administered twice a day measured after 3 days by hematoxylin and eosin staining based analysis; type: functional, organism-based; details: time 3.0 day
# [17] = tested on: Lipopolysaccharide (LPS); experiment: Displacement of BODIPY-TR-cadaverin from Pseudomonas aeruginosa ATCC 27316 Lipopolysaccharide at 1 to 64 uM at pH 6.5 incubated for 1 hr by fluorescence based analysis relative to control; details: dose 1-64 µM
# [18] = tested on: Staphylococcus aureus; experiment: Antibacterial activity against Staphylococcus aureus ATCC 25923 assessed as inhibition of bacterial growth at pH 7.4 incubated for 24 hrs by NCCLS protocol based method; type: functional
# [19] = tested on: Staphylococcus aureus; experiment: Antibacterial activity against Staphylococcus aureus ATCC 29213 assessed as inhibition of bacterial growth at pH 6.5 incubated for 24 hrs by NCCLS protocol based method; type: functional
# [20] = tested on: Pseudomonas aeruginosa; experiment: Antimicrobial activity against Pseudomonas aeruginosa ATCC 27853 assessed as reduction in bacterial growth at pH 6.5 in presence of KCl; type: functional, organism-based
# [21] = tested on: Pseudomonas aeruginosa; experiment: Induction of morphological changes in Pseudomonas aeruginosa ATCC 27853 assessed as plasma membrane collapse at 2 uM at pH 7.4 incubated for 1 hr by TEM analysis; type: functional, organism-based
# [22] = tested on: Pseudomonas aeruginosa; experiment: Antipseudomonal activity against Pseudomonas aeruginosa ATCC 27853 infected in ICR cutaneous abscess mouse model assessed as reduction in lesion area at 5 mg/kg,ip administered twice a day measured after 72 hrs (reference value: […]); type: functional
# [23] = tested on: Salmonella typhimurium; experiment: Antibacterial activity against Salmonella typhimurium ATCC 14028 assessed as inhibition of bacterial growth at pH 6.5 incubated for 24 hrs by NCCLS protocol based method; type: functional, Salmonella enterica subsp. enterica serovar Typhimurium; details: Salmonella enterica
# [24] = tested on: Pseudomonas aeruginosa; experiment: Induction of morphological changes in Pseudomonas aeruginosa ATCC 27853 assessed as change in intracellular contents at 2 uM at pH 6.5 incubated for 1 hr by TEM analysis; type: functional, organism-based
# [25] = tested on: Pseudomonas aeruginosa; experiment: Antimicrobial activity against Pseudomonas aeruginosa ATCC 27853 assessed as reduction in bacterial growth at pH 6.5 in presence of NaCl; type: functional
# [26] = tested on: Escherichia coli; experiment: Antibacterial activity against Escherichia coli ATCC 25922 assessed as inhibition of bacterial growth at pH 7.4 incubated for 24 hrs by NCCLS protocol based method; type: functional
# [27] = tested on: Pseudomonas aeruginosa; experiment: Antimicrobial activity against Pseudomonas aeruginosa ATCC 27853 assessed as reduction in bacterial growth at pH 6.5 in presence of NH4Cl; type: functional, organism-based
# [28] = tested on: Cell membrane; experiment: Induction of outer membrane permeabilization in Pseudomonas aeruginosa ATCC 27853 assessed as pH responsive ability by measuring fold increase in NPN uptake at 64 uM by NPN-dye based fluorescence analysis relative to control; type: subcellular
# [29] = tested on: Mus musculus; experiment: Antiinflammatory activity in ICR cutaneous abscess mouse model assessed as reduction in IL-1beta expression in serum at 5 mg/kg,ip administered twice a day measured after 72 hrs by ELISA (reference value: 9.9 +/ 0.47 10^1pg/ml); type: functional
# [30] = tested on: Cell membrane; experiment: Induction of outer membrane permeabilization in Pseudomonas aeruginosa ATCC 27853 assessed as increase in NPN uptake by NPN-dye based fluorescence analysis; type: subcellular; details: dose 1-64 µM
# [31] = tested on: Cell membrane; experiment: Induction of cytoplasmic membrane depolarization in Pseudomonas aeruginosa ATCC 27853 assessed as increase in fluorescence intensity at acidic and alkaline pH by DiSC3-5 dye based fluorescence assay; type: subcellular; details: TDE = time-dependent effect
# [32] = Cytotoxicity against mouse RAW264.7 cells assessed as inhibition of cell growth at pH 6.5 measured after 24 hrs by MTT assay; type: toxicity, cell-based
# [33] = tested on: Salmonella typhimurium; experiment: Antibacterial activity against Salmonella enterica subsp. enterica serovar Typhimurium C77-31 assessed as inhibition of bacterial growth at pH 7.4 incubated for 24 hrs by NCCLS protocol based method; type: functional
# [34] = Hemolytic activity against human RBC assessed as hemoglobin release at pH 6.5 incubated for 1 hrs; type: toxicity, cell-based; details: erythrocyte, pH 6.5, 1 h
substance,measurement,setting,value
H-FLEHLIPHVIHGLVHAIHH-NH2,IC50 at 24 h,[1],> 128 µM
same,Activity,[2],Active
same,Activity,[3],inactive
same,MIC,[4],> 64 µM
same,MIC,[5],2 µM
same,MIC,[6],2 µM
same,Activity,[7],inactive
same,MIC,[8],2 µM
same,MIC,[9],> 64 µM
same,MIC,[10],> 64 µM
same,Activity,[11],6.67 10^1pg/ml
same,Activity,[12],Active
same,MIC,[13],> 64 µM
same,fold change (FC),[14],10
same,Activity,[15],22.9%
same,Activity,[16],Active
same,Activity,[17],100%
same,MIC,[18],> 64 µM
same,MIC,[19],> 64 µM
same,Activity,[20],inactive
same,Activity,[21],inactive
same,Activity,[22],2.97 10^1/mm2
same,MIC,[23],16 µM
same,Activity,[24],Active
same,MIC,[25],2 µM
same,MIC,[26],> 64 µM
same,Activity,[27],Active
same,Activity,[28],65.9%
same,Activity,[29],6.93 10^1pg/ml
same,Activity,[30],Dose-Dependent Effect
same,Activity,[31],Tde
same,IC50 at 24 h,[32],> 128 µM
same,MIC,[33],> 64 µM
same,MHC10,[34],> 128 µM
